Reference: ChEMBL document CHEMBL1629703, “Novel hepatitis C virus reporter replicon cell lines enable efficient antiviral screening against genotype 1a” (Antimicrob Agents Chemother, 2010)

How the values were obtained:
Hepatitis C virus [1] = assay: Antiviral activity against Hepatitis C virus genotype 1b in luciferase encoding genotype 1b replicons after 3 days by luciferase reporter assay; type: functional, organism-based, Hepacivirus hominis; settings: 72 h
Hepatitis C virus [2] = assay: Antiviral activity against Hepatitis C virus genotype 1a in luciferase encoding genotype 1a replicons after 3 days by luciferase reporter assay; type: functional, organism-based, Hepacivirus hominis; settings: subtype 1a, 72 h

Compound | EC50 (Hepatitis C virus [1]) | EC50 (Hepatitis C virus [2])
C[C@@]1(O)[C@H](O)[C@@H](CO)O[C@H]1n1cnc2c(N)ncnc21 | 0.618 µM | 0.733 µM
COc1ccc2c(O[C@@H]3C[C@H]4C(=O)N[C@]5(C(=O)O)C[C@H]5/C=C\CCCCC[C@H](NC(=O)OC5CCCC5)C(=O)N4C3)cc(-c3csc(NC(C)C)n3)nc2c1 [CILUPREVIR] | – | 0.017 µM
CNC(=O)c1c(-c2ccc(F)cc2)oc2cc(N(CCO)S(C)(=O)=O)c(C3CC3)cc12 [NESBUVIR] | 0.022 µM | 0.045 µM
CCC[C@H](NC(=O)[C@@H]1[C@H]2CCC[C@H]2CN1C(=O)[C@@H](NC(=O)[C@@H](NC(=O)c1cnccn1)C1CCCCC1)C(C)(C)C)C(=O)C(=O)NC1CC1 [TELAPREVIR] | 1.69 µM | 1.25 µM
